Laboratory results from the supplement of paper PMC11424490.
Counter-ions that a name gives are not always drawn.

What was measured:
NCI-H2122 = test: combination cScore with sotorasib (Bliss gap around IC50) (%PoC); higher = stronger additive effect
Method in brief: (§1)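 After 24 h in 384-well plates (500 or 800 cells per well), NCI-H2122, NCI-H358 and SW837 cells received concentration matrices and grew for 72 h, except SW837, which grew for 144 h. CellTiter-Glo readings were scaled to vehicle wells and fitted with four-parameter curves. Each score is the averaged Bliss-independence difference (expected minus measured viability) over a region around both monotherapy IC50s, or at top concentrations when no IC50 was reached.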

SW837 = test: as above
Method in brief: as §1

SMILES | combination cScore with sotorasib (NCI-H2122) | combination cScore with sotorasib (SW837)
CCCS(=O)(=O)Nc1ccc(F)c(C(=O)c2c[nH]c3ncc(Cl)cc23)c1F [PLX4720] + C=CC(=O)N1CCN(c2nc(=O)n(-c3c(C)ccnc3C(C)C)c3nc(-c4c(O)cccc4F)c(F)cc23)[C@@H](C)C1 [sotorasib] | 17.4 | 2.2
CC(=O)O[C@H]1C(=O)[C@@]2(C)[C@H]([C@H](OC(=O)c3ccccc3)[C@]3(O)C[C@H](OC(=O)[C@H](O)[C@@H](NC(=O)c4ccccc4)c4ccccc4)C(C)=C1C3(C)C)[C@]1(OC(C)=O)CO[C@@H]1C[C@@H]2O [Paclitaxel] + C=CC(=O)N1CCN(c2nc(=O)n(-c3c(C)ccnc3C(C)C)c3nc(-c4c(O)cccc4F)c(F)cc23)[C@@H](C)C1 [sotorasib] | 9.86 | 3.37
Cc1ccc(Nc2nccc(N(C)c3ccc4c(C)n(C)nc4c3)n2)cc1S(N)(=O)=O [Pazopanib] + C=CC(=O)N1CCN(c2nc(=O)n(-c3c(C)ccnc3C(C)C)c3nc(-c4c(O)cccc4F)c(F)cc23)[C@@H](C)C1 [sotorasib] | 9.15 | 2.58
Nc1nc2[nH]cc(CCc3ccc(C(=O)N[C@@H](CCC(=O)O)C(=O)O)cc3)c2c(=O)[nH]1 [Pemetrexed] + C=CC(=O)N1CCN(c2nc(=O)n(-c3c(C)ccnc3C(C)C)c3nc(-c4c(O)cccc4F)c(F)cc23)[C@@H](C)C1 [sotorasib] | 1.36 | 16.4
CC(C)(C)c1cc(NC(=O)Nc2ccc(-c3cn4c(n3)sc3cc(OCCN5CCOCC5)ccc34)cc2)no1 [Quizartinib] + C=CC(=O)N1CCN(c2nc(=O)n(-c3c(C)ccnc3C(C)C)c3nc(-c4c(O)cccc4F)c(F)cc23)[C@@H](C)C1 [sotorasib] | -1.22 | -4.13
Cc1ncc(NC(=O)c2cccc(C(F)(F)F)c2)cc1-c1cnc(OC2CCOCC2)c(N2CCOCC2)c1 [RAF-709] + C=CC(=O)N1CCN(c2nc(=O)n(-c3c(C)ccnc3C(C)C)c3nc(-c4c(O)cccc4F)c(F)cc23)[C@@H](C)C1 [sotorasib] | 3.48 | 5.38
CO[C@H]1C[C@@H]2CC[C@@H](C)[C@@](O)(O2)C(=O)C(=O)N2CCCC[C@H]2C(=O)O[C@H]([C@H](C)C[C@@H]2CC[C@@H](O)[C@H](OC)C2)CC(=O)[C@H](C)/C=C(\C)[C@@H](O)[C@@H](OC)C(=O)[C@H](C)C[C@H](C)/C=C/C=C/C=C/1C [Rapamycin] + C=CC(=O)N1CCN(c2nc(=O)n(-c3c(C)ccnc3C(C)C)c3nc(-c4c(O)cccc4F)c(F)cc23)[C@@H](C)C1 [sotorasib] | 13.4 | 10.2
CNC(=O)c1cc(Oc2ccc(NC(=O)Nc3ccc(Cl)c(C(F)(F)F)c3)c(F)c2)ccn1 [Regorafenib] + C=CC(=O)N1CCN(c2nc(=O)n(-c3c(C)ccnc3C(C)C)c3nc(-c4c(O)cccc4F)c(F)cc23)[C@@H](C)C1 [sotorasib] | 7.32 | -5.66
COc1cc(OC)c(/C=C/S(=O)(=O)Cc2ccc(OC)c(NCC(=O)O)c2)c(OC)c1 [Rigosertib] + C=CC(=O)N1CCN(c2nc(=O)n(-c3c(C)ccnc3C(C)C)c3nc(-c4c(O)cccc4F)c(F)cc23)[C@@H](C)C1 [sotorasib] | 2.41 | 13.3
C/C=C1\NC(=O)[C@H]2CSSCC/C=C/[C@H](CC(=O)N[C@H](C(C)C)C(=O)N2)OC(=O)[C@H](C(C)C)NC1=O [Romidepsin] + C=CC(=O)N1CCN(c2nc(=O)n(-c3c(C)ccnc3C(C)C)c3nc(-c4c(O)cccc4F)c(F)cc23)[C@@H](C)C1 [sotorasib] | 5.9 | 12.7
N#CC[C@H](C1CCCC1)n1cc(-c2ncnc3[nH]ccc23)cn1 [Ruxolitinib] + C=CC(=O)N1CCN(c2nc(=O)n(-c3c(C)ccnc3C(C)C)c3nc(-c4c(O)cccc4F)c(F)cc23)[C@@H](C)C1 [sotorasib] | 4.05 | 6.8
CC(C)(C)c1ccc(S(=O)(=O)NCc2ccc(C(=O)Nc3cccnc3)cc2)cc1 [STF-31] + C=CC(=O)N1CCN(c2nc(=O)n(-c3c(C)ccnc3C(C)C)c3nc(-c4c(O)cccc4F)c(F)cc23)[C@@H](C)C1 [sotorasib] | -10.2 | 17.6
CNC(=O)c1cc(Oc2ccc(NC(=O)Nc3ccc(Cl)c(C(F)(F)F)c3)cc2)ccn1 [Sorafenib] + C=CC(=O)N1CCN(c2nc(=O)n(-c3c(C)ccnc3C(C)C)c3nc(-c4c(O)cccc4F)c(F)cc23)[C@@H](C)C1 [sotorasib] | 4.75 | -8.41
CCN(CC)CCNC(=O)c1c(C)[nH]c(/C=C2\C(=O)Nc3ccc(F)cc32)c1C [Sunitinib] + C=CC(=O)N1CCN(c2nc(=O)n(-c3c(C)ccnc3C(C)C)c3nc(-c4c(O)cccc4F)c(F)cc23)[C@@H](C)C1 [sotorasib] | 10.9 | 23
Cn1nnc2c(C(N)=O)ncn2c1=O [Temozolomide] + C=CC(=O)N1CCN(c2nc(=O)n(-c3c(C)ccnc3C(C)C)c3nc(-c4c(O)cccc4F)c(F)cc23)[C@@H](C)C1 [sotorasib] | 6.39 | -4.91
C[C@@H]1CCN(C(=O)CC#N)C[C@@H]1N(C)c1ncnc2[nH]ccc12 [Tofacitinib citrate] + C=CC(=O)N1CCN(c2nc(=O)n(-c3c(C)ccnc3C(C)C)c3nc(-c4c(O)cccc4F)c(F)cc23)[C@@H](C)C1 [sotorasib] | 1.35 | 2.98
CC(C)C[C@@H](C(=O)N[C@H](C(=O)OC1CCCC1)c1ccccc1)[C@H](O)C(=O)NO [Tosedostat] + C=CC(=O)N1CCN(c2nc(=O)n(-c3c(C)ccnc3C(C)C)c3nc(-c4c(O)cccc4F)c(F)cc23)[C@@H](C)C1 [sotorasib] | 10.4 | 31.5
CC(=O)Nc1cccc(-n2c(=O)n(C3CC3)c(=O)c3c(Nc4ccc(I)cc4F)n(C)c(=O)c(C)c32)c1 [Trametinib] + C=CC(=O)N1CCN(c2nc(=O)n(-c3c(C)ccnc3C(C)C)c3nc(-c4c(O)cccc4F)c(F)cc23)[C@@H](C)C1 [sotorasib] | 14.2 | 14.5
CC1=C(/C=C/C(C)=C/C=C/C(C)=C/C(=O)O)C(C)(C)CCC1 [Tretinoin] + C=CC(=O)N1CCN(c2nc(=O)n(-c3c(C)ccnc3C(C)C)c3nc(-c4c(O)cccc4F)c(F)cc23)[C@@H](C)C1 [sotorasib] | 10.5 | 15.7
COc1cc2c(NC3CCN(C(C)C)CC3)nc(C3CCCCC3)nc2cc1OCCCN1CCCC1 [UNC0638] + C=CC(=O)N1CCN(c2nc(=O)n(-c3c(C)ccnc3C(C)C)c3nc(-c4c(O)cccc4F)c(F)cc23)[C@@H](C)C1 [sotorasib] | -0.46 | 9.19
CC(C)Nc1cc(-c2c[nH]c(C(=O)N[C@H](CO)c3cccc(Cl)c3)c2)c(Cl)cn1 [Ulixertinib] + C=CC(=O)N1CCN(c2nc(=O)n(-c3c(C)ccnc3C(C)C)c3nc(-c4c(O)cccc4F)c(F)cc23)[C@@H](C)C1 [sotorasib] | -4.67 | 3.35
CS(=O)(=O)c1ccc(-c2cnc(N)c(C(=O)Nc3ccccc3)n2)cc1 [VE-821] + C=CC(=O)N1CCN(c2nc(=O)n(-c3c(C)ccnc3C(C)C)c3nc(-c4c(O)cccc4F)c(F)cc23)[C@@H](C)C1 [sotorasib] | 6.24 | 6.3
CNCc1ccc(-c2cc(-c3nc(-c4ccc(S(=O)(=O)C(C)C)cc4)cnc3N)on2)cc1 [VE-822/VX-970] + C=CC(=O)N1CCN(c2nc(=O)n(-c3c(C)ccnc3C(C)C)c3nc(-c4c(O)cccc4F)c(F)cc23)[C@@H](C)C1 [sotorasib] | 2.89 | -0.45
CCCC(CCC)C(=O)O [Valproic acid] + C=CC(=O)N1CCN(c2nc(=O)n(-c3c(C)ccnc3C(C)C)c3nc(-c4c(O)cccc4F)c(F)cc23)[C@@H](C)C1 [sotorasib] | -1.96 | -2.1
C[C@]1(c2nc3c(C(N)=O)cccc3[nH]2)CCCN1 [Veliparib] + C=CC(=O)N1CCN(c2nc(=O)n(-c3c(C)ccnc3C(C)C)c3nc(-c4c(O)cccc4F)c(F)cc23)[C@@H](C)C1 [sotorasib] | 18.6 | 7.52
CC[C@]1(O)C[C@@H]2CN(CCc3c([nH]c4ccccc34)[C@@](C(=O)OC)(c3cc4c(cc3OC)N(C)[C@H]3[C@@](O)(C(=O)OC)[C@H](OC(C)=O)[C@]5(CC)C=CCN6CC[C@]43[C@@H]65)C2)C1 [Vinblastine] + C=CC(=O)N1CCN(c2nc(=O)n(-c3c(C)ccnc3C(C)C)c3nc(-c4c(O)cccc4F)c(F)cc23)[C@@H](C)C1 [sotorasib] | 6.11 | 8.44
CCC1=C[C@@H]2CN(C1)Cc1c([nH]c3ccccc13)[C@@](C(=O)OC)(c1cc3c(cc1OC)N(C)[C@H]1[C@@](O)(C(=O)OC)[C@H](OC(C)=O)[C@]4(CC)C=CCN5CC[C@]31[C@@H]54)C2 [Vinorelbine] + C=CC(=O)N1CCN(c2nc(=O)n(-c3c(C)ccnc3C(C)C)c3nc(-c4c(O)cccc4F)c(F)cc23)[C@@H](C)C1 [sotorasib] | 1.79 | 4.13
CS(=O)(=O)c1ccc(C(=O)Nc2ccc(Cl)c(-c3ccccn3)c2)c(Cl)c1 [Vismodegib] + C=CC(=O)N1CCN(c2nc(=O)n(-c3c(C)ccnc3C(C)C)c3nc(-c4c(O)cccc4F)c(F)cc23)[C@@H](C)C1 [sotorasib] | 12.1 | 9.42
